According to BindingDB's records for PubMed 35123298 (Comsats University Islamabad, 2022):

Experiments:
[1] = Negative allosteric modulation activity at human P2X7 receptor expressed in human 1321N1 cells assessed as ATP induced calcium response by measuring ATP EC50 at 40 nM
[2] = Negative allosteric modulation activity at human P2X7 receptor expressed in human 1321N1 cells assessed as ATP induced calcium response by measuring ATP EC50 at 200 nM
[3] = Negative allosteric modulation activity at human P2X7 receptor expressed in human 1321N1 cells assessed as ATP induced calcium response by measuring ATP EC50 at 100 nM
[4] = Negative allosteric modulation activity at human P2X4 receptor expressed in human 1321N1 cells assessed as ATP induced calcium response by measuring ATP EC50 at 40 nM
[5] = Negative allosteric modulation activity at human P2X4 receptor expressed in human 1321N1 cells assessed as ATP induced calcium response by measuring ATP EC50 at 200 nM
[6] = Negative allosteric modulation activity at human P2X4 receptor expressed in human 1321N1 cells assessed as ATP induced calcium response by measuring ATP EC50 at 100 nM

| SMILES | EC50 [1] | EC50 [2] | EC50 [3] | EC50 [4] | EC50 [5] | EC50 [6] |
| --- | --- | --- | --- | --- | --- | --- |
| O=C(NC(=S)Nc1cccc2cccnc12)C12CC3CC(CC(C3)C1)C2 | 6.62 µM | 2.19 µM | 6.08 µM |  |  |  |
| CC(C)c1ccc(NC(=S)NC(=O)C23CC4CC(CC(C4)C2)C3)c(Br)c1 |  |  |  | 10.1 µM | 12.2 µM | 8.96 µM |
